The text below walks through data of publication PMC9386376, “Discovery of spirooxindole-derived small-molecule compounds as novel HDAC/MDM2 dual inhibitors and investigation of their anticancer activity” (Frontiers in Oncology, 2022).

Entries after “also recorded” stand apart in the source; their conditions may differ.

The target of one test is HDAC3 (Homo sapiens, UniProt O15379). Briefly: HDAC isoform selectivity, HDAC3. The settings on record: HDAC subtype panel. The format is biochemical.
Sequence of HDAC3 (O15379 whole entry, canonical isoform): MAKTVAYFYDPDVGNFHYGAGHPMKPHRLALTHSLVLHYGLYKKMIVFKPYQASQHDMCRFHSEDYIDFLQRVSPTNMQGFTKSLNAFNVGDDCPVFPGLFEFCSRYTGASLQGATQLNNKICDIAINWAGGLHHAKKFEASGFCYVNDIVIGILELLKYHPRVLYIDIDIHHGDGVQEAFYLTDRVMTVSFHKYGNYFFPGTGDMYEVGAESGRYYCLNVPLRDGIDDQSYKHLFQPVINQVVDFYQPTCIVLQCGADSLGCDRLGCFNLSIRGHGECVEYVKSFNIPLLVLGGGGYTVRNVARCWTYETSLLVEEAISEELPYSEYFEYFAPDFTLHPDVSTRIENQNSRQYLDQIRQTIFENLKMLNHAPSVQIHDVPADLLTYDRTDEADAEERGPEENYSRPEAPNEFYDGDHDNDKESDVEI
Sequence of HDAC3 (Q9Y618 395-489 partner limits assumed): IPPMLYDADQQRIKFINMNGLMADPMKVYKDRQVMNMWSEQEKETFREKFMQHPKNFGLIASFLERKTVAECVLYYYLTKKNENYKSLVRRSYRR
The next test addresses HDAC4 (Homo sapiens, UniProt P56524). Briefly: HDAC isoform selectivity, HDAC4. Format: biochemical. The settings on record: HDAC subtype panel.
The target of a further test is T1, HDAC6 (Homo sapiens, UniProt Q9UBN7).
T1 sequence (Q9UBN7 1-1215): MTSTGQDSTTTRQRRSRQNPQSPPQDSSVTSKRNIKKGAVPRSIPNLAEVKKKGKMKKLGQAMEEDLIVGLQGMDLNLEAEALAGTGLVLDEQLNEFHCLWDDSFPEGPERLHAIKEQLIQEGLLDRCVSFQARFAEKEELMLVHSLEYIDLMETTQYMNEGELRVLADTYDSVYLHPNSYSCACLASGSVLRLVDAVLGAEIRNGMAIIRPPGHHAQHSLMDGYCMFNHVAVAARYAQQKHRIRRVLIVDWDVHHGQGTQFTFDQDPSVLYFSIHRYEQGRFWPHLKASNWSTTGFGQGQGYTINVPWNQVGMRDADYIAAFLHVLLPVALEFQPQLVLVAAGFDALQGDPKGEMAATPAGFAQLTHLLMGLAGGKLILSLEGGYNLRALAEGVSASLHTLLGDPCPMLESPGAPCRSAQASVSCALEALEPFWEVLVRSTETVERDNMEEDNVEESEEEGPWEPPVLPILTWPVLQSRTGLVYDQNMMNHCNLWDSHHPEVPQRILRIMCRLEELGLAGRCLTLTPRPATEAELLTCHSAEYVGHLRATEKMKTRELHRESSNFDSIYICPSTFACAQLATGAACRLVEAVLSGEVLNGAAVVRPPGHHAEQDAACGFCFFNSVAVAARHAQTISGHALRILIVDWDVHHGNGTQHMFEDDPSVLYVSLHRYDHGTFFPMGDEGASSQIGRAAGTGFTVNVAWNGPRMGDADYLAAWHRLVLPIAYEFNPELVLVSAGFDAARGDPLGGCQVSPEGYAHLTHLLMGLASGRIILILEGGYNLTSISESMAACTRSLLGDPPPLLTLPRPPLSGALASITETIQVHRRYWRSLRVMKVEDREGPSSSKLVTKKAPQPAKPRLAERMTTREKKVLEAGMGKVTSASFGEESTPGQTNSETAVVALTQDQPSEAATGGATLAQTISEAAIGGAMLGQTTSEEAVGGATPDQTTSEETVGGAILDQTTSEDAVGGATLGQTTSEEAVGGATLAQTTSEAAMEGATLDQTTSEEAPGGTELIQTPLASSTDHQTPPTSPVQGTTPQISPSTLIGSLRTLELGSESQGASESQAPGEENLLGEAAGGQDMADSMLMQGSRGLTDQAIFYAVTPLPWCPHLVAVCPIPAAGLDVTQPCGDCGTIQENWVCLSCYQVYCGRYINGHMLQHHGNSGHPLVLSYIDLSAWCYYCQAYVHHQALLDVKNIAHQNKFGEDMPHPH
In words: HDAC isoform selectivity, HDAC6. The format is biochemical. The settings on record: HDAC subtype panel.

Test [1] relates to MCF-7 cells. In words: TUNEL staining apoptosis assay. The format is cell-based, human. The settings on record: MCF-7, 0.5 μM, 24 h, compared with SAHA and Nutlin-3. As for the experimental part: (§1) It was reported that the inactivation of HDAC and/or MDM2 could increase the percentage of apoptosis cells ([85]–[87]). Therefore, three methods were applied to assess the effect of MDM2-HDAC dual inhibitor 11b on the apoptosis of MCF-7 cells. […] Subsequently, the annexin V-FITC/propidium iodide (PI) double staining method was carried out to quantitatively detect the effect of compound 11b on cell apoptosis (Figure 9B).
TUNEL assay was performed using in situ apoptosis detection kit (Promega, USA), according to the manufacturer’s protocols. […] After 24 h incubation, cells were plated onto the slides, fixed in 4% paraformaldehyde in PBS for 25 min, and then washed with PBS twice. After that, the cells were incubated in TUNEL reaction mixture at 37°C for 60 min. Then nuclei were counterstained with DAPI, and cells were checked under an immunofluorescent confocal microscopy (Olympus FV1000).

Test [2] has as its system MCF-7 cells. Briefly: Annexin V-FITC/PI double staining, flow cytometry. Format: cell-based, human. The settings on record: MCF-7, 5.0 μM, 24 h. As for the experimental part: as §1
Cells were collected after incubation, then fixed with 75% ice-cold ethanol and stored at -20°C for 1 h. The cells were then harvested with 0.25% trypsin (without EDTA) and centrifuged at 2000 rpm for 5min. Then, the harvested cells were washed with ice-cold PBS twice and resuspended in 500 μL of 1× binding buffer, which was then added to 5 μL of annexin V-FITC and incubated at room temperature in the dark for 15 min. After adding 10 μL of propidium iodide (PI), the cells were incubated at room temperature in the dark. After another 15 min incubation, the cells were collected and analyzed by flow cytometry.
(In flow cytometry, cells or beads pass a laser one at a time.)

In another test the test system is MDM2, p53 in MCF-7 cells. Briefly: Western blot, MDM2 and p53 protein level. The format is cell-based, human. The settings on record: MCF-7, 24 h incubation. As for the experimental part: The cells were collected and washed with cold PBS twice, then added the protease and phosphatase inhibitors contained lysis buffer. Total cell lysates were prepared in lysis RIPA buffer (Invitrogen, CA, USA) on ice for 30 min, followed by centrifugation at 12000 rpm for 10 min at 4°C. After collecting supernatant, protein concentration was determined by a BCA protein assay. The total proteins were loaded into the 10%-15% SDS-PAGE gel and separated by sodium dodecyl sulfate polyacrylamide gel electrophoresis (PAGE). After electrophoresis, the protein was transferred to the PVDF membranes and rinsed three times in PBST buffer for 10 min each time, then sealed with 5% BSA Buffer for 1h. The membranes were incubated at 4°C for 24 h with primary antibodies and washed with TBST three times. Then incubated at room temperature for 2 h with secondary antibodies (1:10,000). The incubated PVDF membranes were taken out and rinsed with TBST three times. The protein bands were visualized through enhanced chemiluminescence (ECL) WB substrate (Millipore, MA, USA) and analyzed by ChemiScope. The antibodies including p53, MDM2, H4, and GAPDH were purchased from Abcam (Cambridge, MA, USA).
On the technique in general: Immunoblotting shows a protein as a band on a membrane.

For a further test, the target named is T2, GST-tagged MDM2 (Homo sapiens, UniProt Q00987).
T2 construct: purchased Cisbio Co. Ltd
T2 sequence (Q00987 whole entry): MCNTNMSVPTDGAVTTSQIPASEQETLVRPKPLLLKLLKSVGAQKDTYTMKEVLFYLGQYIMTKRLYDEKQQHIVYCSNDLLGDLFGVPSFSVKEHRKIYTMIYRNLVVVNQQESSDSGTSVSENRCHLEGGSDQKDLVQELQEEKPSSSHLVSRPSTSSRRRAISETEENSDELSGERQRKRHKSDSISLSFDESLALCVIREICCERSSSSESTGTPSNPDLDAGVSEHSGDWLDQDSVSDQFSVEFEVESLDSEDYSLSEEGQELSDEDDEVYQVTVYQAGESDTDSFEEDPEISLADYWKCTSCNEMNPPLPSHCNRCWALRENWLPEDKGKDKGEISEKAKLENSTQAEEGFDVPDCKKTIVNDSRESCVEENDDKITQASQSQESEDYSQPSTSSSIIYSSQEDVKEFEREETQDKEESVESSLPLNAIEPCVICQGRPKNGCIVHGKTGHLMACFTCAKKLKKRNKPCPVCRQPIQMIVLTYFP
Briefly: HTRF enzyme inhibition assay, MDM2. Format: biochemical.

Another test has as its system A431 cells. Briefly: MTT antiproliferative assay, A431. The settings on record: Homo sapiens, A-431, read-out: IC50 A431. Background: Tetrazolium assays rely on reduction of a dye to a coloured formazan, in cell work by metabolically active cells.
The next test addresses HDAC1 (Homo sapiens, UniProt Q13547). In words: HTRF enzyme inhibition assay, HDAC1.
In the next test the test system is HCT116 cells. Briefly: MTT antiproliferative assay, HCT116. The settings on record: Homo sapiens, HCT-116, read-out: IC50 HCT116.

Sequence of HDAC1 (Q13547 whole entry): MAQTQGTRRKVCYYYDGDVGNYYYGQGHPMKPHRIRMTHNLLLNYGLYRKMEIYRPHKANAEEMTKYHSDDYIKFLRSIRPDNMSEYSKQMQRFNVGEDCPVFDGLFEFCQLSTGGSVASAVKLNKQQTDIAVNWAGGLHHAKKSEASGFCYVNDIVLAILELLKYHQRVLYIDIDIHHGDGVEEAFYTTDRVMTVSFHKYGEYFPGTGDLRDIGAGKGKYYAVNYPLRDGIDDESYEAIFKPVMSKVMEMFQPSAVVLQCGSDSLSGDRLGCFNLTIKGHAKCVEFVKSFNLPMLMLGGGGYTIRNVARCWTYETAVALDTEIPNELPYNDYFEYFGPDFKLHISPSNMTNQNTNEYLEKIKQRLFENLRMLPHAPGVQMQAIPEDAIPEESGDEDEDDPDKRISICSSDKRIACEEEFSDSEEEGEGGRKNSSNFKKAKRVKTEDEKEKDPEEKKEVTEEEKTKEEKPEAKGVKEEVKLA
Sequence of HDAC4 (P56524 whole entry, canonical isoform): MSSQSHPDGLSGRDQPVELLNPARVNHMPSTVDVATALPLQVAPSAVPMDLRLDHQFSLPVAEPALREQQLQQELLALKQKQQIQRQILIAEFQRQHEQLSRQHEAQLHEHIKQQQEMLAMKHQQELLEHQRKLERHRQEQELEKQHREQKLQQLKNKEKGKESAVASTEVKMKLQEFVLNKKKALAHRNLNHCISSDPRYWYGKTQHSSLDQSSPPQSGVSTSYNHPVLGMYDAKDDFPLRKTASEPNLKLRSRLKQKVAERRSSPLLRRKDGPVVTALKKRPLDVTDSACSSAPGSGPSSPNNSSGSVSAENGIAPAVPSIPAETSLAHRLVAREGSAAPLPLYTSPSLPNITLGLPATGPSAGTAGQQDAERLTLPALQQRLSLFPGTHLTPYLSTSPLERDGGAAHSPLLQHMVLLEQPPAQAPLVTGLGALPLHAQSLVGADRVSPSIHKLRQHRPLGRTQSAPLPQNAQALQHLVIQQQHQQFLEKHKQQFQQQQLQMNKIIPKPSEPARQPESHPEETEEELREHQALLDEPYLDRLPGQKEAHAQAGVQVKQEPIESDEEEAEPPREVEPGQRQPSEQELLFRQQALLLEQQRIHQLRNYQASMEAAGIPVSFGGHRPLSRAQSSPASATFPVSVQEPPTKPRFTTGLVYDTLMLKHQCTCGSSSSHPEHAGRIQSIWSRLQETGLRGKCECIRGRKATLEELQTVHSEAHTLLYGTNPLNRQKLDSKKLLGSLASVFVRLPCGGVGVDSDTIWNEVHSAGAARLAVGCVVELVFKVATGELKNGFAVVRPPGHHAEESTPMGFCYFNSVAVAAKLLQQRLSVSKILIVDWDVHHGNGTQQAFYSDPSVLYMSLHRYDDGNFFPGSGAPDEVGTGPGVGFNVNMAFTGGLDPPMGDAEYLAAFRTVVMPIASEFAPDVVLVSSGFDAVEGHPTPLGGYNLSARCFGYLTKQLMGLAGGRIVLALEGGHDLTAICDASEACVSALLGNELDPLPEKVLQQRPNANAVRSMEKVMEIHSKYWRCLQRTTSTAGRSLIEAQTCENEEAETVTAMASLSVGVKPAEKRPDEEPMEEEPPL
Description for A431 cells: (§2) The cytotoxicity assay was performed with MTT method as previously described ([73], [88], [89]).
Description for HCT116 cells: as §2
Description for HDAC1: The data obtained were processed by the ratio method, and the inhibition rates of MDM2 and HDAC1 were calculated. The detailed experimental procedures are according to the manufacturer’s protocols.

By IC50 is commonly meant the concentration needed to halve the response being measured. A word on the inhibition: it is the change of the read-out against control, counted positive when it falls. Regarding `O=C(CCCCCCC(=O)N1CCC(C(=O)Nc2ccc([C@@H]3[C@H]4CSCN4[C@]4(C(=O)Nc5cc(Cl)ccc54)[C@H]3C(=O)c3ccccc3)cc2)CC1)NO` [compound 11b, N-(4-((3R,6'S,7'R,7a'S)-6'-benzoyl-6-chloro-2-oxo-1',6',7',7a'-tetrahydro-3'H-spiro[indoline-3,5'-pyrrolo[1,2-c]thiazol]-7'-yl)phenyl)-1-(8-(hydroxyamino)-8-oxooctanoyl)piperidine-4-carboxamide], the IC50 against HDAC3 is 115 ± 9 nM; against HDAC4, above 10000 nM; against HDAC6, 120 ± 26 nM; on GST-tagged MDM2, 339 ± 68 nM; in the test with A431 cells, 1890 ± 880 nM; on HDAC1, 58 ± 5 nM. In addition, the IC50 in the test on HCT116 cells worked out at 2540 ± 1070 nM. Further, the “apoptotic positive cells by TUNEL staining” value in the test on MCF-7 cells [1] is “significantly higher number of apoptotic positive cells”. The molecule also displayed an apoptotic cells in the test on MCF-7 cells [2] of 37.36%. Also, in the test with MDM2, p53 in MCF-7 cells, the “protein level of MDM2 and p53 (western blot)” value is recorded as “up-regulating the expression of p53; also recorded: increased the expression of p53; also recorded: dose-dependently increased the protein level of MDM2 as well as p53”. The inhibition at 1 µM at HDAC1 (read-out: % enzyme inhibition HDAC) worked out at 79%.
